pIC50, pKi: −log10 of the molar value. Counter-ions that a name gives are not always drawn. Like-named read-outs stand apart in the source and are kept apart here.
What was measured:
[1] = system: putative α3β2* receptor subtype; assay: Inhibition of S-(−)-NIC-evoked [3H]-DA release from rat striatal slices; assay type: cell-based; conditions: rat striatal slices superfused 60 minutes with analog prior to NIC (10 μM)
Experimental: Rat striatal slices (500 μm thickness, 6–8 mg wet weight) were incubated for 30 minutes in Kreb's buffer (118 mM NaCl, 4.7 mMKCl, 1.2 mM MgCl2, 1.0 mM NaH2PO4, 1.3 mM CaCl2, 11.1 mM glucose, 25 mM NaHCO3, 0.11 mM L-ascorbic acid, and 0.004 mM disodium EDTA; pH 7.4, and saturated with 95% O2/5% CO2) in a metabolic shaker at 34° C. Slices were rinsed with 15 ml of fresh buffer and incubated for an additional 30 minutes in fresh buffer containing 0.1 μM [^3]H-DA (6 slices/3 ml). Subsequently, slices were rinsed with 15 ml of fresh buffer and transferred to a glass superfusion chamber. Slices were superfused (1.0 ml/min) for 60 minutes with Kreb's buffer containing nomifensine (10 μM) and pargyline (10 μM) and maintained at 34° C., pH 7.4, with continual aeration (95% O2/5% CO2). Two five minute samples (5 ml each) were collected to determine basal outflow of [^3H]-DA. […] Subsequently, S-(−)-nicotine (10 μM) was added to the buffer and an additional 12 consecutive five minute samples were collected. At the end of the experiment, each slice was solubilized and the [^3H] content of the tissue determined.
Radioactivity in the superfusate and tissue samples was determined by liquid scintillation spectroscopy. Fractional release for each sample was calculated by dividing by the total tritium present in the tissue at the time of sample collection, and was expressed as a percentage of total tissue tritium. […] The sum of the increase in collected tritium resulting from either exposure to the test-compound or exposure to nicotine in the absence and presence of the test compound equaled total [^3H]overflow. [^3H]Overflow was calculated by subtracting the [^3H]outflow during an equivalent period of prestimulation from the values in samples collected during and after drug exposure. Inasmuch as the radiolabelled compounds were not separated and identified, the tritium collected in superfusate is referred to as either [^3H]outflow or [^3 H]overflow, rather than as [^3H]-DA. [^3H]Overflow primarily represents [^3H]-DA in the presence of nomifensine and pargyline in the superfusion buffer.
In these experiments, striatal slices were superfused for 60 minutes with various concentrations of the analogs prior to NIC (10 μM) exposure. Antagonist activity was evaluated by comparing the NIC-evoked [^3H]overflow in the absence and presence of the analogs.

[2] = target: T1, Rat Striatal Nicotinic Acetylcholine Receptors (Rattus norvegicus, UniProt P09483+P12390); assay: [3H]-NIC binding assay, rat striatal membranes; conditions: 3 nM [3H]-NIC, at least 3 independent experiments, read-out: Ki, displacement of [3H]-NIC binding
T1 construct: from tissue; host or cells: rat striatal membranes
Experimental: Striata from two rats were dissected, pooled, and homogenized with a Tekmar polytron in 10 volumes of ice-cold modified Krebs-HEPES buffer (20 mM HEPES, 118 mM NaCl, 4.8 mM KCl, 2.5 mM CaCl2, 1.2 mM MgSO4, adjusted to pH 7.5). The homogenates were incubated at 37° C. for 5 minutes and centrifuged at 15,000 g for 20 minutes. The pellet was resuspended in 10 volumes of ice-cold MilliQ water, incubated for 5 minutes at 37° C., and centrifuged at 15,000 g for 20 mm. The second pellet was then resuspended in 10 volumes of fresh ice-cold 10% Krebs-HEPES buffer, incubated at 37° C., and centrifuged at 15,000 g for 20 minutes. The latter sequence of resuspension, incubation, and rentrifugation was repeated. The pellet was frozen under fresh 10% Krebs-HEPES buffer and stored at −40° C. until assayed. Upon assay, the pellet was resuspended in the Krebs-HEPES buffer, incubated at 37° C. for 5 minutes, and centrifuged at 15,000 g for 20 mm. The final pellet was resuspended in 3.6 ml ice-cold MilliQ water which provided for approximately 200 μg protein per 100 μl aliquot. Competition assays were performed in triplicate in a final volume of 200 μl Krebs-HEPES buffer containing 250 mmol Tris buffer (pH 7.5 at 4° C.). […] After a 90 min incubation at 4° C., reactions were terminated by dilution of the samples with 3 ml of ice-cold Krebs-HEPES buffer followed immediately by filtration through Whatman GF/B glass fiber filters (presoaked in 0.5% polyethyleneimine) using a Brandel Cell Harvester. Filters were rinsed three times with 3 ml of ice-cold Krebs-HEPES buffer, transferred to scintillation vials, and 5 ml scintillation cocktail (Research Products International Corp., Mt. Prospect, Ill.) added. Nonspecific binding determined in triplicate was defined as binding in the presence of 10 μM NIC. Binding parameters were determined using the weighted, least squares nonlinear regression analysis.

[3] = target: T2, α7 neuronal nicotinic acetylcholine receptor subtype (Rattus norvegicus, UniProt Q05941); assay: [3H]-MLA binding assay, rat brain membranes; conditions: read-out: Ki, displacement of [3H]-MLA binding
T2 construct: from tissue; host or cells: rat brain membranes (without cortex, striatum and cerebellum)
Experimental: Rat brain tissue (without cortex, striatum and cerebellum) was homogenized with a Tekmar Polytron (setting 40) in 20 volumes of ice-cold hypotonic buffer (2 mM HEPES, 14.4 mM NaCl, 0.15 mM KCl, 0.2 mM CaCl2 and 0.1 mM MgSO4, pH=7.5). The homogenate was incubated at 37° C. for 10 minutes and centrifuged at 25,000×g for 15 minutes at 40° C. The pellet was washed 3 times more by resuspension in the 20 volumes of the same buffer and centrifugation at the above parameters. The final pellet was stored at −20° C. under 4.6 ml of the incubation buffer and was suspended just before the incubation with radioligand.
The binding of [^3H]methyllycaconitine ([^3H]MLA), a probe for the α7 neuronal nicotinic acetylcholine receptor subtype, was determined using a modification of the method of Davies et al., “Characterisation of the binding of [^3H]methyllycaconitine: a new radioligand for labelling α7-type neuronal nicotinic acetylcholine receptors”, Neuropharmacology, 38, 679–690 (1999). [^3H]-MLA (25.4 Ci/mmol) was purchased from Tocris Cookson Ltd., Bristol, U.K. Binding was performed in duplicate, in a final volume of 250 μL of the incubation medium, containing 20 mM HEPES, 144 mM NaCl, 1.5 mM KCl, 2 mM CaCl2, 1 mM MgSO4 and 0.05% BSA, pH=7.5. Reaction was initiated by the addition of 100 μl of membrane suspension to the samples containing a desired concentration of test compounds and 2.5 nM [^3H]-MLA (final concentration) and incubated for 2 hours at room temperature. Total binding was measured in the absence of unlabelled ligand, and nonspecific binding was determined in the presence of 1 μM unlabelled MLA. The binding reaction was terminated by dilution of samples with 3 ml of ice-cold incubation buffer followed by immediate filtration through presoaked in 0.5% polyethylenimine glass fiber filters (S&S, grade #32) using a Brandel harvester system. Filters were rinsed three times with 3 ml of ice-cold buffer, transferred to scintillation vials and 4 ml of scintillation cocktail was added.

[4] = rat brain membranes, 2.5 nM [3H]-MLA

T1 sequence (P09483 31-630): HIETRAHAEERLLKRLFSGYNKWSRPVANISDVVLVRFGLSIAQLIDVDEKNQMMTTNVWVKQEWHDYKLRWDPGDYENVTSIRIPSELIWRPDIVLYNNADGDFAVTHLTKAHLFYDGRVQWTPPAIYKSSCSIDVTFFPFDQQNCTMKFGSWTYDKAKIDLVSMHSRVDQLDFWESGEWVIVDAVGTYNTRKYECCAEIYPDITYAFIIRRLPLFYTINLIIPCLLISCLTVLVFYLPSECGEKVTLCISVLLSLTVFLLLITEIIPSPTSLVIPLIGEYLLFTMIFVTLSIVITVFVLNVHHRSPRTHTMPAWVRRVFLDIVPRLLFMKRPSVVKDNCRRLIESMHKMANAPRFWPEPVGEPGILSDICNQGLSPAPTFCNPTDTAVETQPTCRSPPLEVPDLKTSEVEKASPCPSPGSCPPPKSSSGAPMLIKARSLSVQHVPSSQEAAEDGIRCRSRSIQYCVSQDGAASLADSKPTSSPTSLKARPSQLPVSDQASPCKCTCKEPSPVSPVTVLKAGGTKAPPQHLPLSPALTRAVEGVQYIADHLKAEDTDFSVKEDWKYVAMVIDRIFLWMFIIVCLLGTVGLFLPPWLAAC
T1 sequence (P12390 25-500): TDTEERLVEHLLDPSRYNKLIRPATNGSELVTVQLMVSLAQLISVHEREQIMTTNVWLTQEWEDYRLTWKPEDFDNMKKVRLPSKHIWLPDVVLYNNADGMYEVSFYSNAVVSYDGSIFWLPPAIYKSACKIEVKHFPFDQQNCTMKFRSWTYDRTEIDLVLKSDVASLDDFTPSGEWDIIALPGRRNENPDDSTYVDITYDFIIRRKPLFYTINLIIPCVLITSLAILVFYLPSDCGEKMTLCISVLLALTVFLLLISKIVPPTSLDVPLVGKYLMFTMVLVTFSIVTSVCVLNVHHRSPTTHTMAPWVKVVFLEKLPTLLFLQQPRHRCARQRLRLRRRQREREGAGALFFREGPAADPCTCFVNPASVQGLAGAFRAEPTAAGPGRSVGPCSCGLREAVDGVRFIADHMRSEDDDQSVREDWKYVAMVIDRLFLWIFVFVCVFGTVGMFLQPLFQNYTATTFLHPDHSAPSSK
T2 sequence (Q05941 23-502): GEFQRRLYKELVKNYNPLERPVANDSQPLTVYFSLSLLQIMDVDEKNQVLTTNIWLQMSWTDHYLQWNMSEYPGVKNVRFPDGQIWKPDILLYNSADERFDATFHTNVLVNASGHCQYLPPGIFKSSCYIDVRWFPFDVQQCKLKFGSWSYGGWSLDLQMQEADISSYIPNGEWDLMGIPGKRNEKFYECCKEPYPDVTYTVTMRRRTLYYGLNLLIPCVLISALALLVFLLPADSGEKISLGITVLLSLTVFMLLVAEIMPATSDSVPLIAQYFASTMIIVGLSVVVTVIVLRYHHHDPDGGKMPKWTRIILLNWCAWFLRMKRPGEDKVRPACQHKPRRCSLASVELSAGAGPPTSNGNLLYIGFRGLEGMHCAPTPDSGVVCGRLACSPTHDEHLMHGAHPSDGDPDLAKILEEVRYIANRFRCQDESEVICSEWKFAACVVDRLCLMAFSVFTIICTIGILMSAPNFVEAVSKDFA

Molecule | pIC50 [1] | pKi [2] | pKi [3, 4] | pKi [3]
CCCC/C=C/CC[n+]1cccc([C@@H]2CCCN2C)c1 [NONB-3t, (S)-trans-3-(1-Methyl-pyrrolidin-2-yl)-1-oct-3-enyl-pyridinium bromide hydrobromide salt] | 5.46 | 5.40 |  | 
CC(C)CCCCCC[n+]1cccc([C@@H]2CCCN2C)c1 [NONB-7M, (S)-1-(7-Methyl-octyl)-3-(1-methyl-pyrrolidin-2-yl)-pyridinium bromide hydrobromide salt] | < 4.00 | 6.36 |  | 
CN1CCC[C@H]1c1ccc[n+](CCCCCCC2CCCC2)c1 [NCyNB-5, (S)-1-(6-Cyclopentyl-hexyl)-3-(1-methyl-pyrrolidin-2-yl)-pyridinium bromide hydrobromide salt] |  | 5.26 | 4.05 | 
CCCCC#CCC[n+]1cccc([C@@H]2CCCN2C)c1 [NONB-3y, (S)-3-(1-Methyl-pyrrolidin-2-yl)-1-oct-3-ynyl-pyridinium bromide] | 5.77 | 6.70 |  | 
CCCCC/C=C/CCC[n+]1cccc([C@@H]2CCCN2C)c1 [NDNB-4t, (S)-trans-1-Dec-4-enyl-3-(1-methyl-pyrrolidin-2-yl)-pyridinium bromide] | 6.48 | 6.49 |  | 
α-Bungarotoxin [reference compound] |  |  |  | 8.14
CCCCCCCCCC[n+]1cccc([C@@H]2CCCN2C)c1 [NDNI, N-n-decylnicotinium iodide, reference compound] | < 4.00 | 7.03 |  | 
CCCCC/C=C\CCC[n+]1cccc([C@@H]2CCCN2C)c1 [NDNB-4c, (S)-cis-1-Dec-4-enyl-3-(1-methyl-pyrrolidin-2-yl)-pyridinium bromide hydrobromide salt] | 5.83 | 5.11 |  | 
C=CCCCCCC[n+]1cccc([C@@H]2CCCN2C)c1 [NONB-7e, (S)-3-(1-Methyl-pyrrolidin-2-yl)-1-oct-7-enyl-pyridinium bromide] | 5.58 | 6.35 |  | 
CCOCCOCC[n+]1cccc([C@@H]2CCCN2C)c1 [NONB-3O6O, (S)-1-[2-(2-Ethoxy-ethoxy)-ethyl]-3-(1-methyl-pyrrolidin-2-yl)-pyridinium bromide] |  | 5.92 |  | 
CC(C)=CCCCCC[n+]1cccc([C@@H]2CCCN2C)c1 [NONB-6e7M, (S)-1-(7-Methyl-oct-6-enyl)-3-(1-methyl-pyrrolidin-2-yl)-pyridinium bromide hydrobromide] | 5.70 | 6.35 |  | 
CCCC/C=C\CC[n+]1cccc([C@@H]2CCCN2C)c1 [NONB-3c, (S)-cis-3-(1-Methyl-pyrrolidin-2-yl)-1-oct-3-enyl-pyridinium bromide hydrobromide salt] | 5.69 | 7.07 |  | 
CN1CCC[C@H]1c1ccc[n+](CCCCCCC2CCCCC2)c1 [NCyNB-6, (S)-1-(6-Cyclohexyl-hexyl)-3-(1-methyl-pyrrolidin-2-yl)-pyridinium bromide hydrobromide salt] |  | 5.34 | 4.37 | 
CCCCCCC#CCC[n+]1cccc([C@@H]2CCCN2C)c1 [NDNB-3y, (S)-1-Dec-3-ynyl-3-(1-methyl-pyrrolidin-2-yl)-pyridinium bromide] | 5.59 | 6.09 |  | 
CCCCCCCC[n+]1cccc([C@@H]2CCCN2C)c1 [NONI, N-n-octylnicotinium iodide, reference compound] | 6.21 |  |  | 
CN1CCC[C@H]1c1ccc[n+](CCCCCCC2CCC2)c1 [NCyNB-4, (S)-1-(6-Cyclobutyl-hexyl)-3-(1-methyl-pyrrolidin-2-yl)pyridinium bromide hydrobromide salt] |  | 5.14 | 4.52 | 

— patent publication US7091357B2, “Chain-modified pyridino-N substituted nicotine compounds for use in the treatment of CNS pathologies” (University of Kentucky Research Foundation, priority 2001, dated 2006)
